Experimental data: EPA's ToxValDB 9.5 (doi:10.2903/j.efsa.2010.1872)
In brackets after ≈: the same amount, converted by molar mass.

Experiments:
[1] = test system: Typhlodromus pyri; conditions: chronic/long-term; mortality
[2] = test system: Tagia sp.; conditions: acute, duration: 14 days
[3] = test system: Pimephales promelas
[4] = test system: Apis mellifera; conditions: acute; oral; unspecified; mortality
[5] = test system: Folsomia candida; conditions: chronic/long-term; duration: 28 days; mortality
[6] = test system: Daphnia magna; conditions: chronic/long-term; duration: 21 days
[7] = test system: Rattus norvegicus
[8] = test system: Colinus virginianus
[9] = test system: Bibionidae; conditions: chronic/long-term; duration: 28 days; development
[10] = test system: Anas platyrhynchos; conditions: oral, mortality
[11] = test system: Typhlodromus pyri; assay: LR50; higher = less toxic; conditions: not reported; mortality
[12] = reproduction developmental, reproduction

With `CC1(C)[C@H](C(=O)O[C@H](C#N)c2cccc(Oc3ccccc3)c2)[C@@H]1/C=C\C(=O)OC(C(F)(F)F)C(F)(F)F` [Acrinathrin] the NOEC [1] was 0.00068 g/ha, the NOEC [2] was 1.6 mg/kg and the LC50 ([2]; mortality) was > 1000 mg/kg. The LC50 ([3]; acute, duration: 96 hours, mortality) was 1.7 ng/mL (≈ 3.14 nM), the NOEC ([3]; chronic/long-term, duration: 21 days) was 1.1e-05 mg/L and the LD50 [4] was 0.077 µg/piece. For the same compound, the NOEC [5] was < 1 mg/kg, the NOEC [6] was 3.2e-06 mg/L and the NOAEL ([7]; acute, neurology) was 1 mg/kg-day. The LD50 ([7]; acute, oral, mortality) was > 5000 mg/kg-day, the NOAEL [7, 12] was 9.4 mg/kg-day and the NOEL [7, 12] was 2.5 mg/kg-day. For the same compound, the LD50 ([8]; acute, oral, mortality) was > 2250 mg/kg-day, the NOEC [8, 12] was 19.9 mg/kg-day and the NOEC ([8]; short-term, oral, diet, mortality) was 325 mg/kg-day. The NOEC [9] was 3.1e-05 mg/L, the LD50 ([10]; acute, unspecified) was > 2000 mg/kg-day and the NOEC ([10]; short-term, feed) was 173 mg/kg-day. It also gave an LR50 [11] of 0.006 g/ha.
